Laboratory results reported in PubChem BioAssay AID200 (DTP/NCI, 2004).
“And” between values parts separate entries of the source, which are not always exact repeats. Equal entries are not always repeated. Inconclusive results and toxic doses are left out. Where a SMILES comes first, the peptide text is derived from it. The star is where a group is joined. Cbz = O=C(OCc1ccccc1)*; Bn = c1ccc(C*)cc1

Tested on: B6C3F1 mice, B16 melanoma ip, median survival T/C
Test: NCI In Vivo Anticancer Drug Screen. Data for tumor model B16 Melanoma (intraperitoneal) in B6C3F1 mice
Conditions: endpoint: median survival time, schedule: Q01DX009 (ip), higher = longer survival
Outline: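 Transplantable tumor in mice; treated vs vehicle control groups; survival or tumor size measured; value = T/C ratio.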

[1] = dose: 6.25 mg/kg/injection, vehicle: Klucel (hydroxypropylcellulose) (HPC)
[2] = dose: 12.5 mg/kg/injection, vehicle: Klucel (hydroxypropylcellulose) (HPC)
[3] = dose: 0.25 mg/kg/injection, vehicle: saline + alcohol
[4] = dose: 0.5 mg/kg/injection, vehicle: saline + alcohol
[5] = dose: 1.0 mg/kg/injection, vehicle: saline + alcohol
[6] = dose: 25.0 mg/kg/injection, vehicle: saline with Tween-80
[7] = dose: 50.0 mg/kg/injection, vehicle: saline with Tween-80
[8] = dose: 25.0 mg/kg/injection, vehicle: Klucel (hydroxypropylcellulose) (HPC)
[9] = dose: 50.0 mg/kg/injection, vehicle: Klucel (hydroxypropylcellulose) (HPC)
[10] = dose: 100.0 mg/kg/injection, vehicle: Klucel (hydroxypropylcellulose) (HPC)

CC(=O)OCC1OC([S-])C(OC(C)=O)C(OC(C)=O)C1OC(C)=O.CC[PH+](CC)CC.CC[PH+](CC)CC.[Au].[Au] (stereo not given)
T/C (dose: 0.62 mg/kg/injection, vehicle: Klucel (hydroxypropylcellulose) (HPC)): 110 % of control and 105 % of control
T/C (dose: 1.25 mg/kg/injection, vehicle: Klucel (hydroxypropylcellulose) (HPC)): 109 % of control
T/C (dose: 2.5 mg/kg/injection, vehicle: Klucel (hydroxypropylcellulose) (HPC)): 98 % of control and 103 % of control
T/C (dose: 5.0 mg/kg/injection, vehicle: Klucel (hydroxypropylcellulose) (HPC)): 114 % of control and 97 % of control
T/C (dose: 10.0 mg/kg/injection, vehicle: Klucel (hydroxypropylcellulose) (HPC)): 92 % of control

COC(=O)C1OC(OC2=C(c3ccc(OC)cc3)C(=O)C(OC3OC(C(=O)OC)C(OC(C)=O)C(OC(C)=O)C3OC(C)=O)=C(c3ccc(OC)cc3)C2=O)C(OC(C)=O)C(OC(C)=O)C1OC(C)=O (stereo not given)
T/C (dose: 0.78 mg/kg/injection, vehicle: Klucel (hydroxypropylcellulose) (HPC)): 109 % of control
T/C (dose: 1.56 mg/kg/injection, vehicle: Klucel (hydroxypropylcellulose) (HPC)): 109 % of control
T/C (dose: 3.13 mg/kg/injection, vehicle: Klucel (hydroxypropylcellulose) (HPC)): 99 % of control
T/C [1]: 102 % of control
T/C [2]: 93 % of control

Cn1c(-c2ccc(/C=N\N3CCN(/N=C/c4ccc(-c5c[n+]6ccsc6n5C)cc4)CC3)cc2)c[n+]2ccsc12
T/C (dose: 0.75 mg/kg/injection, vehicle: saline with Tween-80): 103 % of control
T/C (dose: 1.5 mg/kg/injection, vehicle: saline with Tween-80): 104 % of control
T/C (dose: 3.0 mg/kg/injection, vehicle: saline with Tween-80): 113 % of control
T/C (dose: 6.0 mg/kg/injection, vehicle: saline with Tween-80): 113 % of control

CC1=C(C)C(=O)O[C@@H]([C@](C)(O)[C@]2(O)CC[C@@]3(O)[C@@H]4C[C@H]5O[C@]56[C@@H](O)C=CC(=O)[C@]6(C)[C@H]4CC[C@]23C)C1
T/C [3]: 122 % of control
T/C (dose: 0.25 mg/kg/injection, vehicle: saline): 107 % of control
T/C [4]: 117 % of control
T/C (dose: 0.5 mg/kg/injection, vehicle: saline): 116 % of control
T/C [5]: 122 % of control
T/C (dose: 1.0 mg/kg/injection, vehicle: saline): 115 % of control and 124 % of control
T/C (dose: 2.0 mg/kg/injection, vehicle: saline): 115 % of control
T/C (dose: 4.0 mg/kg/injection, vehicle: saline + alcohol): 150 % of control
T/C (dose: 16.0 mg/kg/injection, vehicle: saline): 152 % of control and 171 % of control
T/C (dose: 16.0 mg/kg/injection, vehicle: suspension in saline): 170 % of control

NC(CC(=O)CCl)C(=O)O (stereo not given)
T/C [1]: 106 % of control
T/C [2]: 101 % of control

O=C(O)CC(=O)O.[NH-]CC[NH-].[Pt+2]
T/C (dose: 12.5 mg/kg/injection, vehicle: dextrose): 175 % of control
T/C (dose: 25.0 mg/kg/injection, vehicle: dextrose): 86 % of control

CCC1=C2C(=O)c3ccccc3C2=C(C)S(=O)(=O)O1
T/C (dose: 1.56 mg/kg/injection, vehicle: saline with Tween-80): 98 % of control
T/C (dose: 3.12 mg/kg/injection, vehicle: saline with Tween-80): 98 % of control
T/C (dose: 6.25 mg/kg/injection, vehicle: saline with Tween-80): 91 % of control and 93 % of control

ClC1(Cl)Cc2ccccc21
T/C (dose: 18.0 mg/kg/injection, vehicle: saline with Tween-80): 105 % of control
T/C [6]: 122 % of control
T/C (dose: 30.0 mg/kg/injection, vehicle: saline with Tween-80): 107 % of control
T/C [7]: 99 % of control
T/C (dose: 83.33 mg/kg/injection, vehicle: saline with Tween-80): 103 % of control
T/C (dose: 138.88 mg/kg/injection, vehicle: saline with Tween-80): 100 % of control

COc1cc2cc(c1Cl)N(C)C(=O)/C=C/C1(C)OC1C(C)C1CC(O)(NC(=O)O1)C(OC)/C=C/C=C(\C)C2OC (stereo not given)
T/C (dose: 4.0 micrograms/kg/injection, vehicle: distilled water + alcohol): 117 % of control
T/C (dose: 8.0 micrograms/kg/injection, vehicle: distilled water + alcohol): 105 % of control
T/C (dose: 16.0 micrograms/kg/injection, vehicle: distilled water + alcohol): 112 % of control

CC1=CC(=Nc2ccc(N(CCCl)CCCl)cc2)C=C(C)C1=O
T/C [1]: 150 % of control
T/C [2]: 163 % of control and 176 % of control
T/C [8]: 186 % of control

S=C(S)N1CCCNCC1 (tested in a mixture with another compound)
T/C (dose: 12.5 mg/kg/injection, vehicle: saline with Tween-80): 107 % of control
T/C [6]: 100 % of control
T/C [7]: 92 % of control

C=CC1(C)CCC2C(=CCC3C2(C)CC(O)C(O)C3(C)COC2OC(CO)C(O)C(O)C2O)C1 (stereo not given)
T/C (dose: 1.5 mg/kg/injection, vehicle: Klucel (hydroxypropylcellulose) (HPC)): 116 % of control
T/C (dose: 3.0 mg/kg/injection, vehicle: Klucel (hydroxypropylcellulose) (HPC)): 103 % of control
T/C (dose: 6.0 mg/kg/injection, vehicle: Klucel (hydroxypropylcellulose) (HPC)): 113 % of control
T/C (dose: 12.0 mg/kg/injection, vehicle: Klucel (hydroxypropylcellulose) (HPC)): 107 % of control
T/C (dose: 24.0 mg/kg/injection, vehicle: Klucel (hydroxypropylcellulose) (HPC)): 108 % of control

NC(=O)C(Cc1ccccc1)NC(=O)C(CSCc1ccccc1)NC(=O)OCc1ccccc1 (stereo not given) (Cbz-Cys(Bn)-Phe-NH2; configuration not given here)
T/C [8]: 91 % of control
T/C [9]: 109 % of control and 105 % of control
T/C [10]: 100 % of control and 103 % of control

O=[N+]([O-])c1ccc2c3c(ccc([N+](=O)[O-])c13)CC2
T/C [8]: 89 % of control
T/C [9]: 89 % of control
T/C [10]: 91 % of control and 95 % of control

NC(=O)NC(CC(=O)O)C(=O)O (stereo not given)
T/C [7]: 113 % of control
T/C (dose: 100.0 mg/kg/injection, vehicle: saline with Tween-80): 95 % of control
T/C (dose: 200.0 mg/kg/injection, vehicle: saline with Tween-80): 102 % of control

C=C1C(O)C2(O)OCC34C(CC5C(C)=CC(=O)C(O)C5(C)C23)OC(=O)C(OC(=O)C(C)(O)CC)C14 (stereo not given)
T/C (dose: 0.13 mg/kg/injection, vehicle: saline + alcohol): 89 % of control
T/C [3]: 110 % of control and 101 % of control
T/C [4]: 103 % of control
T/C [5]: 115 % of control

COc1ccc(C[C@H](N)C(=O)NC2C(CO)OC(n3cnc4c(N(C)C)ncnc43)C2O)cc1 (stereo not given in full)
T/C (dose: 5.0 mg/kg/injection, vehicle: saline): 103 % of control and 105 % of control
T/C (dose: 10.0 mg/kg/injection, vehicle: saline): 114 % of control and 106 % of control
T/C (dose: 20.0 mg/kg/injection, vehicle: saline): 112 % of control and 116 % of control
T/C (dose: 40.0 mg/kg/injection, vehicle: saline): 118 % of control and 122 % of control

CC[C@]1(O)C[C@H](OC2CC(N(C)C)C(OC3CC(O)C(O)C(C)O3)C(C)O2)c2c(cc3c(c2O)C(=O)c2c(O)ccc(O)c2C3=O)[C@H]1C(=O)OC (stereo not given in full)
T/C (dose: 0.12 mg/kg/injection, vehicle: Klucel (hydroxypropylcellulose) (HPC)): 106 % of control
T/C (dose: 0.25 mg/kg/injection, vehicle: Klucel (hydroxypropylcellulose) (HPC)): 115 % of control
T/C (dose: 1.0 mg/kg/injection, vehicle: Klucel (hydroxypropylcellulose) (HPC)): 177 % of control
T/C (dose: 2.0 mg/kg/injection, vehicle: Klucel (hydroxypropylcellulose) (HPC)): 191 % of control

CC(=O)OC1=C(Cl)CCc2ccccc21
T/C (dose: 37.5 mg/kg/injection, vehicle: saline with Tween-80): 115 % of control
T/C (dose: 75.0 mg/kg/injection, vehicle: saline with Tween-80): 96 % of control
T/C (dose: 150.0 mg/kg/injection, vehicle: saline with Tween-80): 98 % of control
